IC50 data for ten molecules are collected here from patent US6838453B2, “Antagonist derivatives of the vitronectin receptor” (Aventis Pharma S.A., priority 2000, dated 2005).

For the experiment, the target named is human αvβ3 receptor (Homo sapiens, UniProt P05106+P06756). The experiment is described as follows: Kistrin/Vitronectin Receptor (αvβ3) ELISA test. Type of experiment: binding. Conditions: Kistrin-coated plates, co-incubated 3 hours at ambient temperature, 4B12-HRP antibody, OD 450 nm, read-out: K/VnR IC50. The protocol: Kistrin/Vitronectin Receptor (αvβ3) ELISA Test
Sequence of human αvβ3 receptor (P06756 31-889 limits assumed): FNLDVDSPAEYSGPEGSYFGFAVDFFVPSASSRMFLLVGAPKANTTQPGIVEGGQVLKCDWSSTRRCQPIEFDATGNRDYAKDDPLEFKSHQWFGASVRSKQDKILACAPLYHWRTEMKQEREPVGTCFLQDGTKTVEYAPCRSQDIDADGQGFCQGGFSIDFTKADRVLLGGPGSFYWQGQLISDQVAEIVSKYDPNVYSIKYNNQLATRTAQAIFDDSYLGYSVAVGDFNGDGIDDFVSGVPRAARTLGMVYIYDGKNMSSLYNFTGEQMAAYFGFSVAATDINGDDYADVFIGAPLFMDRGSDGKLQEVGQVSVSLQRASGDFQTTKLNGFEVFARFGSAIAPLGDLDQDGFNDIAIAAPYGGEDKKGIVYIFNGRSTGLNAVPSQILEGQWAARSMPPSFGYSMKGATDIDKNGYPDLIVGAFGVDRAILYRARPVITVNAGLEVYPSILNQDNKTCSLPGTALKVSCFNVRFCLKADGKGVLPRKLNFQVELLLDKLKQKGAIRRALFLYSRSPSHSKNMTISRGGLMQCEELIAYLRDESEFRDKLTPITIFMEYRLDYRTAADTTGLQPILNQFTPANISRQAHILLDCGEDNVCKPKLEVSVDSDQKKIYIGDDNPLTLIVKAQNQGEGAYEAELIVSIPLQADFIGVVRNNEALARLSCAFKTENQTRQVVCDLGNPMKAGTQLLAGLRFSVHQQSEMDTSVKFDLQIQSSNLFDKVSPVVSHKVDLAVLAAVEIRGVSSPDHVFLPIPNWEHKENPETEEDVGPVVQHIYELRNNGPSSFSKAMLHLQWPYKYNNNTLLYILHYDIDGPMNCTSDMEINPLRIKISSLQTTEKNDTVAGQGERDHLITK
Sequence of human αvβ3 receptor (P06756 891-1048 limits assumed): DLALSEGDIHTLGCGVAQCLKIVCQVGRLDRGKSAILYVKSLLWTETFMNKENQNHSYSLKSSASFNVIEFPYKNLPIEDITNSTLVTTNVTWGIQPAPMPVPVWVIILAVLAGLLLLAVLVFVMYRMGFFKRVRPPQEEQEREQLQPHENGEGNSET
Sequence of human αvβ3 receptor (P05106 27-788): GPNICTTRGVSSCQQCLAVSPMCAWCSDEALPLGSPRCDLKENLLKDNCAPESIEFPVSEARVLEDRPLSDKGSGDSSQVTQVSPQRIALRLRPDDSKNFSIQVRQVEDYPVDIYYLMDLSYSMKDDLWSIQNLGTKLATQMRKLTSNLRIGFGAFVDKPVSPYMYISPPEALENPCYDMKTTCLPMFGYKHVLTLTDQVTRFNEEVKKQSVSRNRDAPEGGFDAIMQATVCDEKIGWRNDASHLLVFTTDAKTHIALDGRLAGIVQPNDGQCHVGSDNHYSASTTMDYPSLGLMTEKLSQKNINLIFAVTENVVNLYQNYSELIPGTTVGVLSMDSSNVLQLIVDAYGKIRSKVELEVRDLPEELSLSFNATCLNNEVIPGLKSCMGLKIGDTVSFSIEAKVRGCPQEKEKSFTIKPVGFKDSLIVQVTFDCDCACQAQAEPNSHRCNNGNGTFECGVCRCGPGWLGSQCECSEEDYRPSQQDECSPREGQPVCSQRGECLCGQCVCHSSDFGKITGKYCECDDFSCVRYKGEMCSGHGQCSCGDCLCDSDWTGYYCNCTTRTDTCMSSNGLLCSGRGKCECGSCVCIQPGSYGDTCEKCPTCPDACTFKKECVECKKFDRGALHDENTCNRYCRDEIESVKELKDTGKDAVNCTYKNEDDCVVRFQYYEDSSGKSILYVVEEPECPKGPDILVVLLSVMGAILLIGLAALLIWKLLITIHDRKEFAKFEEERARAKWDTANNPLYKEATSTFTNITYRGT
96-well MaxiSorp planes are coated overnight at […] with 100 μl of Kistrin at 1 μg/ml (dilution in a coating buffer: carbonate 0.05 M/NaOH pH 9.6). The next day, the wells are emptied and the ligands (kistrin) are then fixed (fixing buffers: PBS containing 0.5% BSA (pH=7.4)) for 1 hour at ambient temperature with gentle agitation at 125 rpm. The wells are washed six times (washing buffer: PBS containing 0.05% of Tween 20 (pH 7.7) then the following are added per well and in this order: • 40 μl of incubation buffer • 10 μl of the dilution of the product to be tested (the products are diluted in a 50:50 mixture DMSO/Water) • 50 μl of human αvβ3 receptor (cf Pytella et al. Methods Enzymol. (1987) 144 (Dilution in incubation buffer, to be adapted according to the receptor batch and according to the ligand). The ligand, the αvβ3 receptor and the products to be studied are co-incubated for 3 hours at ambient temperature with gentle agitation at 125 rpm.
The wells are again washed six times, then incubated for 2 hours at ambient temperature with gentle agitation at 125 rpm, in the presence of 100 μl of anti-receptor antibody conjugated to a peroxidase (The 4B12-HRP antibody is diluted in an incubation buffer (50 mM TRIS pH 7.4; 0.5% BSA; 0.05% Tween 20; 1 mM MnCl2; 50 μM CaCl2; 50 μM MgCl2; 100 mM NaCl) The dilution is adapted according to the receptor batch.
The wells are then washed six times before measuring the ligand-receptor bond carried out using a peroxidase developer kit (TBM Microwell Peroxidase Substrate System Kirkegaard; Cat. Ref. 50-76-00).
This kit contains a bottle A of substrate (3,3′,5,5′-tetramethylebenzidine at 0.4 g/l) and a bottle B (H2O2 at 0.02% in a Citrate/Citric acid buffer). Extemporaneously, a volume of A is mixed with a volume of B, then the reaction mixture is distributed at a rate of 100 μl/well.
The enzymatic reaction develops between 6 and 10 minutes for Kistrin/αvβ3 then its evolution is stopped by the addition of 100 μl of 1M phosphoric acid. The optical density is determined at 450 nm.
Expression of the Results
The following curve is plotted: the bond percentage as a function of the logarithm of each concentration of the tested product.
For each product, the IC50 is determined according to the following formula: IC50=(B0+Bmin)/2 • B0=Maximum bond in the absence of any product • Bmin =Minimum bond in the presence of the highest concentration of the product.
(In an ELISA, binding on a coated surface is turned into a signal by an enzyme label.)
Take `O=C(CCc1ccc(C(=O)NC[C@H](Nc2nc3ccc(Br)cc3s2)C(=O)O)cc1)NC1=NCCCN1` [Example 11, N-(6-bromo-2-benzothiazolyl)-3-[[4-[3-oxo-3-[(1,4,5,6-tetrahydro-2-pyrimidinyl)amino]propyl]benzoyl]amino]-L-alanine]: the IC50 stood at 7 nM.
`COc1ccc2[nH]c(N[C@@H](Cc3ccc(OCCCC(=O)NC4=NCCCN4)cc3)C(=O)O)nc2c1` [Example 4a]: the IC50 was 19 nM.
`O=C(CCCOc1ccc(C[C@H](Nc2nc3ccc([N+](=O)[O-])cc3o2)C(=O)O)cc1)NC1=NCCCN1` [Example 22, N-(6-nitro-2-benzoxazolyl)-O-[4-oxo-4-[(1,4,5,6-tetrahydro-2-pyrimidinyl)amino]butyl]-L-tyrosine]: the IC50 turned out to be 8 nM.
For `O=C(CCCOc1ccc(C[C@H](Nc2nc3cc(Cl)cc(Cl)c3o2)C(=O)O)cc1)NC1=NCCCN1` [Example 28, N-(5,7-dichloro-2-benzoxazolyl)-O-[4-oxo-4-[(1,4,5,6-tetrahydro-2-pyrimidinyl)amino]butyl]-L-tyrosine], the IC50 is 7 nM.
Consider `O=C(CCCOc1ccc(C[C@H](Nc2nnnn2Cc2ccccc2)C(=O)O)cc1)NC1=NCCCN1` [Example 5, O-[4-oxo-4-[(1,4,5,6-tetrahydro-2-pyrimidinyl)amino]butyl]-N-[1-(phenylmethyl)-1H-tetrazol-5-yl]-L-tyrosine], for which the IC50 turned out to be 15 nM.
On to `O=C(CCCOc1ccc(C[C@H](Nc2nc3ccc(F)cc3o2)C(=O)O)cc1)NC1=NCCCN1` [Example 13, N-(6-fluoro-2-benzoxazolyl)-O-[4-oxo-4-[(1,4,5,6-tetrahydro-2-pyrimidinyl)amino]butyl]-L-tyrosine], for which the IC50 stood at 7 nM.
For the molecule `O=C(O)[C@H](Cc1ccc(OCCCc2ccc3c(n2)NCCC3)cc1)Nc1nc2ccccc2o1` [Example 3, N-(2-benzoxazolyl)-O-[3-(5,6,7,8-tetrahydro-1,8-naphthyridin-2-yl)propyl]-L-tyrosine], the IC50 amounted to 50 nM.
On to `O=C(O)[C@H](Cc1ccc(OCCCc2ccc3c(n2)NCCC3)cc1)Nc1nc2ccccc2s1` [Example 2, N-(2-benzothiazolyl)-O-[3-(5,6,7,8-tetrahydro-1,8-naphthyridin-2-yl)propyl]-L-tyrosine], for which the IC50 was 70 nM.
For `O=C(CCCOc1ccc(C[C@H](Nc2nc3ccc(Cl)cc3s2)C(=O)O)cc1)NC1=NCCCN1` [Example 32, N-(6-chloro-2-benzothiazolyl)-O-[4-oxo-4-[(1,4,5,6-tetrahydro-2-pyrimidinyl)amino]butyl]-L-tyrosine], the IC50 was found to be 10 nM.
As for `Cc1ccc2[nH]c(N[C@@H](Cc3ccc(OCCCC(=O)NC4=NCCCN4)cc3)C(=O)O)nc2c1` [Example 4b, N-[5-methyl-1H-benzimidazol-2-yl]-O-[4-oxo-4-[(1,4,5,6-tetrahydro-2-pyrimidinyl)amino]butyl]-L-tyrosine], the IC50 stood at 14 nM.
